In ChEMBL document CHEMBL6182840, “A review of click chemistry in the synthesis of organophosphorus triazoles and their biological activities” (Eur J Med Chem, 2025):

Key:
HepG2 = test: Cytotoxicity against human HepG2 cells assessed as reduction in cell viability by MTS assay; format: functional, cell-based
Hepatitis B virus = test: Antiviral activity against HBV infected in human Huh-7 cells assessed as inhibition of HBV DNA production at 10 uM relative to control; format: functional
[1] = Cytotoxicity against human PBMC cells assessed as reduction in cell viability by MTS assay; format: functional, cell-based
HCT-116 [2] = test: Cytotoxicity against human HCT-116 cells assessed as reduction in cell growth by MTT assay; format: functional, cell-based
[3] = Cytotoxicity against human HEF cells assessed as reduction in cell growth by MTT assay; format: functional, cell-based
MCF7 [4] = test: Cytotoxicity against human MCF7 cells assessed as reduction in cell growth by MTT assay; format: functional, cell-based
MCF7 [5] = test: Cytotoxicity against human MCF7 cells assessed as reduction in cell viability incubated for 72 hrs by MTT assay; format: functional, cell-based; settings: MCF7, 72 h
Caov-3 cell line = test: Cytotoxicity against human Caov-3 cell line assessed as reduction in cell viability incubated for 72 hrs by MTT assay; format: functional, cell-based; settings: Caov-3, 72 h
A549 = test: Cytotoxicity against human A549 cells assessed as reduction in cell viability incubated for 72 hrs by MTT assay; format: functional, cell-based; settings: A549, 72 h
HCT-116 [6] = test: Cytotoxicity against human HCT-116 cells assessed as reduction in cell viability incubated for 72 hrs by MTT assay; format: functional, cell-based; settings: HCT-116, 72 h
PC-3 = test: Cytotoxicity against human PC-3 cells assessed as reduction in cell viability incubated for 72 hrs by MTT assay; format: functional, cell-based; settings: PC-3, 72 h
[7] = target: T1, 4-galactosyl-N-acetylglucosaminide 3-alpha-L-fucosyltransferase FUT6 (Homo sapiens, UniProt P51993); test: Inhibition of human FUT6
T1 sequence (P51993 whole entry): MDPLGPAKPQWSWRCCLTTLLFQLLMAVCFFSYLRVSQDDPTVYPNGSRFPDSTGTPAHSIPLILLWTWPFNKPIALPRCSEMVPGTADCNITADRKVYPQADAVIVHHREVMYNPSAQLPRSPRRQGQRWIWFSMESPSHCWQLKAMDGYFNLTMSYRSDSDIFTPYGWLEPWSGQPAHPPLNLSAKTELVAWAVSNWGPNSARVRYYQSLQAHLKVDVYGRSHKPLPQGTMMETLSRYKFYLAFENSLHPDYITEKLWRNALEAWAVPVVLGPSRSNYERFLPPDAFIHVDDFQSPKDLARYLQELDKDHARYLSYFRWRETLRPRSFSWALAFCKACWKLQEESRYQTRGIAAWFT

Structure (SMILES)	IC50 (MCF7 [5])	IC50 (Caov-3 cell line)	IC50 (A549)	IC50 (HCT-116 [6])	IC50 (PC-3)	further results
CCCCCCCCCCCCCCCCOCCCOP(=O)(C/C=C(\C)Cn1cc(C(N)=O)nn1)OCOC(=O)OC(C)C (stereo not given)						IC50 (HepG2): 66.4 µM; inhibition at 10 µM (Hepatitis B virus): 62%; IC50 [1]: 43.1 µM
CCOP(=O)(OCC)C(Cc1cn(CCN2C/C(=C\c3ccc([N+](=O)[O-])cc3)C(=O)/C(=C/c3ccc([N+](=O)[O-])cc3)C2)nn1)P(=O)(OCC)OCC						IC50 (HCT-116 [2]): 5 µM; IC50 [3]: 5 µM; IC50 (MCF7 [4]): 5 µM
CCOP(=O)(CCCn1cc(CN2C/C(=C\c3ccc(C#N)cc3)C(=O)/C(=C/c3ccc(C#N)cc3)C2)nn1)OCC	1500 nM	1500 nM	1500 nM	1500 nM	1500 nM	
CCOP(=O)(CCCCn1cc(CN2C/C(=C\c3ccc([N+](=O)[O-])cc3)C(=O)/C(=C/c3ccc([N+](=O)[O-])cc3)C2)nn1)OCC	1500 nM	1500 nM	1500 nM	1500 nM	1500 nM	
CCOP(=O)(CCCn1cc(CN2C/C(=C\c3ccc([N+](=O)[O-])cc3)C(=O)/C(=C/c3ccc([N+](=O)[O-])cc3)C2)nn1)OCC	1500 nM	1500 nM	1500 nM	1500 nM	1500 nM	
Nc1nc2c(ncn2[C@@H]2O[C@H](COP(=O)(O)OP(=O)(O)OCc3cn(CCCCC(=O)NCc4ccc(-c5ccccc5)cc4)nn3)[C@@H](O)[C@H]2O)c(=O)[nH]1						IC50 [7]: 610 nM
CCOP(=O)(CCCCn1cc(CN2C/C(=C\c3ccc(C#N)cc3)C(=O)/C(=C/c3ccc(C#N)cc3)C2)nn1)OCC	1500 nM	1500 nM	1500 nM	1500 nM	1500 nM	
CCOP(=O)(OCC)C(Cc1cn(CCN2C/C(=C\c3ccc(C#N)cc3)C(=O)/C(=C/c3ccc(C#N)cc3)C2)nn1)P(=O)(OCC)OCC						IC50 (HCT-116 [2]): 5 µM; IC50 [3]: 5 µM; IC50 (MCF7 [4]): 5 µM
CCOP(=O)(CCCn1cc(CN2C/C(=C\c3ccc(F)cc3)C(=O)/C(=C/c3ccc(F)cc3)C2)nn1)OCC	1500 nM	1500 nM	1500 nM	1500 nM	1500 nM	
